The values below come from publication PMC10459870, “A New Diterpenoid of Indonesian Scoparia dulcis Linn: Isolation and Cytotoxic Activity against MCF-7 and T47D Cell Lines” (Molecules, 2023).

By IC50 is commonly meant the concentration that inhibits the measured activity by half. A high value points to a need for much substance. Broadly, the EC50 is the concentration that produces a half-maximal response.

Each structure is given as a SMILES string. Converted amounts (≈) assume the structure as drawn. Bounds are passed on as bounds.

The subject of series [1] is MCF-7 breast cancer cells. The experiment in a line: Apoptosis induction, Annexin V/PI flow cytometry, MCF-7. Type of series: cell-based. As for the experimental part:
(§1) The method used in this study was the detected Annexin V method using flow cytometry, which allowed for observing the induction of apoptosis that occurs in cells following treatment. Annexin V is a member of a family of phospholipid-binding proteins that are strongly negatively charged on the cell membrane. Cell death resulting from apoptosis or necrosis can be differentiated using propidium iodide (PI) staining intercalation with DNA [24].
(§2) This test was carried out on isolated samples (compound (1)). Culture confluent cells were distributed to 6-well plates, each 2000 µL (for treatment and for cell control). After 24 h of incubation, concentration series were made. The cells were washed with PBS, and 1000 µL of the sample solution with a certain concentration series was put in the well. For the control cells, 1000 µL of culture medium was added well. The cells were again incubated for 24 h in the CO incubator. After incubation, media from the 6-well plates were inserted into a conical tube, then washed with 1000 µL PBS and put into the same conical tube. Then, 200 µL trypsin-EDTA 0.25% was added and incubated for 3 min. Then, 1000 µL of culture medium was also added and resuspended until the cells were released one by one. The cells are then transferred to a conical and centrifuged at 2000 rpm for 3 min. For cell cycle observations, a deep cell precipitates conical tube covered with aluminum foil was dissolved with 400 µL of the PI reagent containing 1 mg/mL PI, 10 mg/mL RNAse, and 0.1% (v/v) Triton-X 100. The cells were resuspended and incubated for 5 min, and then the cell suspension was transferred into a flow cytometry tube for analysis (Ayers et al., 2011). For observations of apoptosis, the supernatant was discarded, then 100 µL of Annexin-V-FLUOS staining was added consisting of 100 µL binding buffer, 2 µL Annexin V, and 2 µL PI. This was followed by incubation in a dark space for 10 min and then analysis using a flow cytometer.

In series [2] the test system is T47D breast cancer cells. Nature of the series: Apoptosis induction, Annexin V/PI flow cytometry, T47D. Format: cell-based. The method, then:
as §1, §2
Background: In flow cytometry, cells or beads pass a laser one at a time.

The test system of the next series is Vero cells. The experiment in a line: MTT cytotoxic activity assay, Vero. Format: cell-based. The following applies: Chlorocebus sabaeus, mean ± SD.
The subject of series [3] is MCF-7 breast cancer cells. The experiment in a line: MTT cytotoxic activity assay, MCF-7. Type of series: cell-based. To be noted: for IC50: Homo sapiens, MCF7, MTT, 24 h treatment, mean ± SD; for Selectivity Index (SI) MCF-7: IC50 Vero / IC50 MCF-7. The method, then:
(§3) A cytotoxic test was performed to obtain an overview of the activity of the sample on the inhibition of cancer cells. The parameter used was the inhibition concentration of 50% (IC50), a concentration that inhibits cells by 50% of the cell population. The IC50 value was calculated from the results of a linear regression between log concentration and the percentage of cell viability.
(§4) The cell lines were obtained from the Parasitology Laboratory, Faculty of Medicine, Universitas Gadjah Mada, Yogyakarta, Indonesia. Each MCF-7 and T47D cell was cultured with complete media, namely, DMEM media for MCF-7 and RPMI for T47D, which contained 10% FBS, 2% penicillin–streptomycin, and 0.5% fungzon. Cultures were stored in a 5% CO2 incubator and for harvesting cells using trypsin, as well as sample solvents using DMSO.
(§5) Compound (1) was tested for its cytotoxic activity using an MTT assay on MCF-7 and T47D breast cancer cells. Briefly, 1 × 10^4 MCF-7 and T47D cells/wells were grown in 96 well plates and incubated for 24 h in a CO2 incubator. The cells were treated with sample concentrations of 200, 100, 50, 25, 12.5, and 6.25 μg/mL for MCF-7 and 50, 25, 12.5, 6.25, 3.125, and 1.5625 μg/mL for T47D and then incubated for 24 h in a CO2 incubator. After incubation, the condition of the cells was observed under a microscope. The cell media was discarded followed by washing with phosphate-buffered saline (PBS). Then 0.5 mg/mL MTT reagent, up to 100 µL, was added to each well followed by incubation again for 4 h in a CO2 incubator. The cells were observed under a microscope, and after the formazan was clear, 100 µL of SDS stopper reagent was added in 0.01 N HCl. The plate was incubated at room temperature in a dark place for 1 × 24 h, then the absorbance was read with a microplate reader at a wavelength of 595 nm. Analysis of the absorbance data for the cytotoxic test was carried out by calculating the percentage of viable cells using the following formula.
(§6) IC50 values were calculated using a linear regression between sample concentrations and the percent (%)cell viability.
On the technique in general: Tetrazolium assays rely on reduction of a dye to a coloured formazan, in cell work by metabolically active cells.

Series [4] concerns T47D breast cancer cells. Nature of the series: Cell cycle distribution by flow cytometry (PI), T47D. Type of series: cell-based. As for the experimental part: (§7) Cell cycle inhibition and apoptosis induction tests were carried out on compound (1). The analysis was performed using the flow cytometry method to determine the percentage of living cells in each phase of the cell cycle.
as §2, with “The cells were resuspended and incubated for 5 min, and then the cell suspension was transferred into a flow cytometry tube for analysis (Ayers et al., 2011). For observations of apoptosis, the supernatant was discarded, then 100 µL of Annexin-V-FLUOS staining was added consisting of 100 µL binding buffer, 2 µL Annexin V, and 2 µL PI. This was followed by incubation in a dark space for 10 min and then analysis using a flow cytometer.” left out

Series [5] has as its system MCF-7 breast cancer cells. Nature of the series: Cell cycle distribution by flow cytometry (PI), MCF-7. Type of series: cell-based. As for the experimental part:
as §7, §2

Series [6] has as its system T47D breast cancer cells. The experiment in a line: MTT cytotoxic activity assay, T47D. To be noted: for IC50: Homo sapiens, T47D, MTT, 24 h treatment, mean ± SD; for Selectivity Index (SI) T47D: IC50 Vero / IC50 T47D. Type of series: cell-based. As for the experimental part: as §3, §4, §5, §6
The test system of the next series is PPAR-γ. The following applies: reported in the literature; read-out: EC50, agonistic activity against PPAR-γ; cited from earlier work.

Turning to `C=C1CC(OC(=O)c2ccccc2)C2C(C)(CO)CC(O)CC2(C)C1CCC(C)=CCO` (stereo not drawn) [Compound (1), 2α-hydroxyscopadiol], the “Apoptosis against MCF-7, % Parent, P3 (early apoptosis)” value in series [1] (1/2 IC50, 24 h) is on record as 33.5%; in series [1] (1 IC50, 24 h) it was 80.7%. Further, the “Apoptosis against MCF-7, % Parent, P4 (late apoptosis)” value was 16.8% in series [1] (1/2 IC50, 24 h); 15.1% in series [1] (1/4 IC50, 24 h); 11.7% in series [1] (1 IC50, 24 h). Besides, the “Apoptosis against T47D, % Parent, P3 (early apoptosis)” value with T47D breast cancer cells [2] (1/2 IC50, 24 h) came out at 6.1%; in the series with T47D breast cancer cells [2] (1/4 IC50, 24 h), 5%; with T47D breast cancer cells [2] (1 IC50, 24 h) it was 24.8%. For the same molecule, the “Apoptosis against T47D, % Parent, P4 (late apoptosis)” value is 3.0% in the series with T47D breast cancer cells [2] (1/2 IC50, 24 h) and 2.9% in the series on T47D breast cancer cells [2] (1 IC50, 24 h). The 50% inhibitory concentration (IC50) with Vero cells was 36.5 ± 1.41 µg/mL (≈ 82.5 µM); in series [3], 70.6 ± 1.54 µg/mL (≈ 159 µM); in the series with T47D breast cancer cells [6], below 3.12 µg/mL. The “Selectivity Index (SI) MCF-7” value in series [3] is listed as 0.51. In addition, in series [3] (grouped according to IC50), the “cytotoxic activity class, MCF-7” value was “strong (“strong cytotoxic” IC50 is 10–100 µg/mL)”. For the same molecule, the “% Parent, G1, Cell Cycles against T47D” value is recorded as 50.9% with T47D breast cancer cells [4] (1/2 IC50, 24 h) and 53.3% in the series on T47D breast cancer cells [4] (1 IC50, 24 h). Besides, the “% Parent, G1, Cell Cycles against MCF-7” value in series [5] (1/2 IC50, 24 h) is recorded as 76.5%; in series [5] (1 IC50, 24 h), 78.4%. The “% Parent, G2-M, Cell Cycles against MCF-7” value in series [5] (1/2 IC50, 24 h) was 17.2%. In the series with T47D breast cancer cells [6], the “Selectivity Index (SI) T47D” value was above 3. For the same molecule, in the series with T47D breast cancer cells [6] (grouped according to IC50), the “cytotoxic activity class, T47D” value is “very strong (“very strong cytotoxic”: IC50 < 10 µg/mL)”.
For `C=C1[C@@H](OC(C)=O)[C@H](OC(=O)c2ccccc2)[C@H]2[C@@](C)(CCC[C@]2(C)C(=O)O)[C@H]1CC/C(C)=C/CO` [Compound (3), 4-epi-7α-O-acetylscoparic acid A], the EC50 with PPAR-γ is 900 ± 300 nM.
In turn, `COc1cccc2c1C(=O)c1c(O)c3c(c(O)c1C2=O)C[C@@](O)(C(=O)CO)C[C@@H]3O[C@H]1C[C@H](N)[C@H](O)[C@H](C)O1` [Doxorubicin, reference compound] had an IC50 in the series on Vero cells of 69.5 ± 6.8 µg/mL (≈ 128 µM). For the same molecule, in series [3], the IC50 was determined as 16.6 ± 5.85 µg/mL (≈ 30.6 µM) and the “Selectivity Index (SI) MCF-7” value is given as 4.2. Moreover, in the series with T47D breast cancer cells [6], the 50% inhibitory concentration (IC50) was determined as 35.1 ± 3.14 µg/mL (≈ 64.5 µM) and the “Selectivity Index (SI) T47D” value is reported as below 3.
